In patent US9896441B2 (Lycera Corporation, priority 2014, dated 2018):
pEC50: −log10 of the molar value.

Biological target: T1, RORγ-LBD (Homo sapiens, UniProt P51449)
T1 construct: made in house; host or cells: SF9 cells (baculovirus); used as diluted lysate
T1 sequence (P51449 269-508 limits assumed): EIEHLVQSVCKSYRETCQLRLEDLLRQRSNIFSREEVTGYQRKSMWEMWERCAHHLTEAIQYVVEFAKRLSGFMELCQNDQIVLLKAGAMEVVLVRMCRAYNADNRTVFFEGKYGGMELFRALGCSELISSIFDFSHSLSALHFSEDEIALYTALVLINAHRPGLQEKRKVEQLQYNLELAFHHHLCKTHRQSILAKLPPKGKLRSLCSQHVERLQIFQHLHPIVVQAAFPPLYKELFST
Assay: RORγ-Ligand Binding Domain (LBD) TR-FRET Assay;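 on TR-FRET Assay Max Response: 665/615 nm signal ratio set to 100 without ursolic acid or test compound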
Type: biochemical
Details: RORγ-LBD TR-FRET
Summary of the method: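 SF9 lysate containing His-RORγ-LBD, ~3 nM final; coactivator peptide biotin-SRC1 LXXLL, 200 nM final; ursolic acid 2 μM final; DMSO 1% final; Tris pH 7.0 buffer with KCl, EDTA, DTT, BSA. TR-FRET format.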

Row | pEC50 | Structure (SMILES)
1 | < 5.00 | Cc1noc(C)c1/C=C/c1ccc2c(c1)N(S(=O)(=O)c1cccc(C(F)(F)F)c1)C[C@H](CCC(=O)O)O2 [Example 89BR, (S,E)-3-(6-(2-(3,5-dimethylisoxazol-4-yl)vinyl)-4-((3-(trifluoromethyl)phenyl)sulfonyl)-3,4-dihydro-2H-benzo[b][1,4]-oxazin-2-yl)propanoic acid]
2 | < 5.00 | CS(=O)(=O)c1cccc(/C=C/c2ccc3c(c2)N(S(=O)(=O)c2cccc(C(F)(F)F)c2)C[C@H](CCC(=O)O)O3)c1 [Example 89BV, (S,E)-3-(6-(3-(methylsulfonyl)-styryl)-4((3-(trifluoromethyl)-phenyl)sulfonyl)-3,4-dihydro-2H-benzo[b][1,4]oxazin-2-yl)propanoic acid]
3 | 5.30 to 6.30 | O=C(O)CC[C@H]1CN(S(=O)(=O)c2cccc(C(F)(F)F)c2)c2cc(/C=C/c3c(Cl)cc(OC(F)(F)F)cc3Cl)ccc2O1 [Example 89CN, (S,E)-3-(6-(2,6-dichloro-4-(trifluoromethoxy)styryl)-4-((3-(trifluoromethyl)phenyl)sulfonyl)-3,4-dihydro-2H-benzo[b][1,4]-oxazin-2-yl)propanoic acid]

Same assay, conditions: RORγ-LBD TR-FRET assay

Row | pEC50 | Structure (SMILES)
4 | > 6.30 | Cc1noc(C)c1NC(=O)N[C@@H]1Cc2ccc(/C=C/c3c(F)cccc3C(F)(F)F)cc2N(S(=O)(=O)c2cccc(C(F)(F)F)c2)[C@@H]1C [Example 116L, 1-(3,5-dimethylisoxazol-4-yl)-3-((2R,3R)-7-((E)-2-fluoro-6-(trifluoromethyl)styryl)-2-methyl-1-((3-(trifluoro-methyl)phenyl)sulfonyl)-1,2,3,4-tetrahydroquinolin-3-yl)urea]

Same assay, conditions: RORγ-LBD TR-FRET assay, maximum response

Row | Structure (SMILES) | TR-FRET Assay Max Response
5 | Cc1noc(C)c1NC(=O)N[C@@H]1Cc2ccc(/C=C/c3c(F)cccc3C(F)(F)F)cc2N(S(=O)(=O)c2cccc(C(F)(F)F)c2)[C@@H]1C [Example 116L, 1-(3,5-dimethylisoxazol-4-yl)-3-((2R,3R)-7-((E)-2-fluoro-6-(trifluoromethyl)styryl)-2-methyl-1-((3-(trifluoro-methyl)phenyl)sulfonyl)-1,2,3,4-tetrahydroquinolin-3-yl)urea] | *** (a value in the range of greater than 150 to 200)

Same assay, conditions: with 2 μM ursolic acid (RORγ antagonist); highest test concentration 10 μM

Row | pEC50 | Structure (SMILES)
6 | > 6.30 | O=C(O)C[C@H]1CN(S(=O)(=O)c2cccc(C(F)(F)F)c2)c2cc(NCc3c(F)cccc3Cl)ccc2O1
7 | > 6.30 | O=C(O)C1Cc2ccc(OCc3c(F)cccc3C(F)(F)F)cc2N(S(=O)(=O)c2cccc(C(F)(F)F)c2)C1 (stereo not shown)

Biological target: T2, Gal4-RORγ-LBD (Homo sapiens, UniProt P51449)
T2 construct: expressed in transfected cells
T2 sequence (P51449 269-508 limits assumed): T1 sequence (P51449 269-508 limits assumed)
Assay: Gal4-RORγ Luciferase Reporter Assay in HEK-293T Cells
Type: cell-based
Details: HEK-293 cells, luciferase reporter, in presence of ursolic acid
Description: Assay procedures and results are described below.
In the following protocol, HEK-293 cells were transfected with a construct comprising the Gal4 DNA binding domain fused to the ligand binding domain of RORγ (Gal4-RORγ-LBD) in a pcDNA3.1neo plasmid, and also with a reporter construct comprising pGL4.31 Gal4-luciferase (Promega). Control cells were prepared similarly using empty pcDNA3.1neo and pGL4.31 vectors.
Trans-IT reagent (Mirus, 60 μL) at room temperature was added drop wise to OptiMEM (Invitrogen, 1.5 ml). This reagent mixture was mixed by inversion then incubated for 5 to 30 minutes at room temperature. It then was added to a solution of both expression vectors (5 μg each), mixed, and incubated at room temperature for about 20 minutes. HEK-293 cells were harvested from incubation flasks by removing the media, treating with TrypLE Express (Invitrogen), and incubating until the cells detached from the bottom of the flask (approximately 2-5 minutes). 10 Million cells were collected by centrifugation and re-suspended in 10 mL of Dulbecco's Modified Eagle Medium, High Glucose (DMEM, Invitrogen) containing 10% Fetal Bovine Serum and 100 IU each of penicillin and streptomycin. The re-suspended cells and the transfection mixture were added to a T75 flask, mixed and incubated overnight at 37° C. and 5% CO2.
The cells were harvested as described above, counted, and centrifuged to obtain the desired number of cells, then re-suspended in complete growth media at 0.75×10^6 cells/mL. The RORγ antagonist, ursolic acid, was added to the cells at a final concentration of […]. Cells were plated at 20 µL of cell suspension/well (10,000-15,000 cells/well) in white tissue culture treated 384 well plates. Test compounds were dissolved at 10 mM in DMSO then diluted into complete growth medium to 5× the final intended test concentration. These drug stock solutions, 5 µL/well were added to the tissue culture plate. The final DMSO concentration was 0.2%. The plates were briefly centrifuged then incubated overnight at 37° C. and 5% CO2. To conduct the assay, the tissue culture plates were allowed to equilibrate to room temperature and One-Glo luciferase reagent (Promega, 25 µL/well) was added. The plates were briefly centrifuged then incubated at room temperature for 10 minutes. The luciferase intensity was read on an Envision plate reader (Perkin Elmer). […] The luciferase signal in the absence of ursolic acid or test compound is defined at 100. The Max Response is the upper plateau in the signal as determined by line-fit using a 4-parameter logistic model in PRISM (GraphPad).

Row | pEC50 | Structure (SMILES)
8 | > 6.30 | C/C(=C\c1ccc2c(c1)N(S(=O)(=O)c1cccc(C(F)(F)F)c1)C[C@H](CCC(=O)N1CC(C#N)C1)O2)c1c(F)cccc1Cl [Example 127M, (S,E)-1-(3-(6-(2-(2-chloro-6-fluorophenyl)-prop-1-en-1-yl)-4-((3-(trifluoromethyl)phenyl)-sulfonyl)-3,4-dihydro-2H-benzo[b][1,4]oxazin-2-yl)propanoyl)azetidine-3-carbonitrile]
9 | > 6.30 | C/C(=C\c1ccc2c(c1)N(S(=O)(=O)c1cccc(C(F)(F)F)c1)C[C@H](CCC(=O)NCCC(=O)O)O2)c1c(F)cccc1Cl [Example 129P, (S,E)-3-(3-(6-(2-(2-chloro-6-fluorophenyl)-prop-1-en-1-yl)-4-((3-(trifluoromethyl)phenyl)-sulfonyl)-3,4-dihydro-2H-benzo[b][1,4]oxazin-2-yl)propanamido)-propanoic acid]

Same assay, conditions: HEK-293 cells, luciferase reporter, in presence of ursolic acid, maximum response

Row | Structure (SMILES) | Gal4-RORγ Assay Max Response
10 | C/C(=C\c1ccc2c(c1)N(S(=O)(=O)c1cccc(C(F)(F)F)c1)C[C@H](CCC(=O)N1CC(O)C1)O2)c1c(F)cccc1Cl [Example 127L, (S,E)-3-(6-(2-(2-chloro-6-fluorophenyl)prop-1-en-1-yl)-4-((3-(trifluoro-methyl)phenyl)sulfonyl)-3,4-dihydro-2H-benzo[b][1,4]oxazin-2-yl)-1-(3-hydroxyazetidin-1-yl)propan-1-one] | * (a value in the range of 30 to 90)
11 | C/C(=C\c1ccc2c(c1)N(S(=O)(=O)c1cccc(C(F)(F)F)c1)C[C@H](CCC(=O)N1C3CCC1COC3)O2)c1c(F)cccc1Cl [Example 127K, 1-(3-oxa-8-azabicyclo-[3.2.1]octan-8-yl)-3-((S)-6-((E)-2-(2-chloro-6-fluorophenyl)prop-1-en-1-yl)-4-((3-(trifluoro-methyl)phenyl)sulfonyl)-3,4-dihydro-2H-benzo[b][1,4]oxazin-2-yl)propan-1-one] | ** (a value in the range of greater than 90 to 150)
12 | C/C(=C\c1ccc2c(c1)N(S(=O)(=O)c1cccc(C(F)(F)F)c1)C[C@H](CCC(=O)N1CC(C#N)C1)O2)c1c(F)cccc1Cl [Example 127M, (S,E)-1-(3-(6-(2-(2-chloro-6-fluorophenyl)-prop-1-en-1-yl)-4-((3-(trifluoromethyl)phenyl)-sulfonyl)-3,4-dihydro-2H-benzo[b][1,4]oxazin-2-yl)propanoyl)azetidine-3-carbonitrile] | ** (a value in the range of greater than 90 to 150)
13 | C/C(=C\c1ccc2c(c1)N(S(=O)(=O)c1cccc(C(F)(F)F)c1)C[C@H](CCC(=O)NCCC(=O)O)O2)c1c(F)cccc1Cl [Example 129P, (S,E)-3-(3-(6-(2-(2-chloro-6-fluorophenyl)-prop-1-en-1-yl)-4-((3-(trifluoromethyl)phenyl)-sulfonyl)-3,4-dihydro-2H-benzo[b][1,4]oxazin-2-yl)propanamido)-propanoic acid] | *** (a value in the range of greater than 150 to 200)

Same assay, conditions: HEK-293 cells, luciferase reporter, with ursolic acid

Row | Structure (SMILES) | pEC50
14 | O=C(O)CC[C@H]1CN(S(=O)(=O)c2cccc(C(F)(F)F)c2)c2cc(/C=C3\CCCOC3)ccc2O1 [Example 95I, (S,E)-3-(6-((dihydro-2H-pyran-3(4H)-ylidene)methyl)-4-((3-(trifluoromethyl)phenyl)sulfonyl)-3,4-dihydro-2H-benzo[b][1,4]oxazin-2-yl)propanoic acid] | 5.30 to 6.30
15 | C/C(=C\c1ccc2c(c1)N(S(=O)(=O)c1cc(F)cc(C(F)(F)F)c1)C[C@H](CCC(=O)O)O2)c1c(F)cccc1Cl [Example 86AQ, (S,E)-3-(6-(2-(2-chloro-6-fluorophenyl)-prop-1-en-1-yl)-4-((3-fluoro-5-(trifluoromethyl)-phenyl)sulfonyl)-3,4-dihydro-2H-benzo[1,4]oxazin-2-yl)propanoic acid] | > 6.30
16 | CCOc1nn2c(c1S(=O)(=O)N1C[C@H](CCC(=O)OC)Oc3ccc(/C=C(\C)c4c(F)cccc4Cl)cc31)CCCC2 [Example 65, Methyl (S,E)-3-(6-(2-(2-chloro-6-fluorophenyl)prop-1-en-1-yl)-4-((2-ethoxy-4,5,6,7-tetrahydropyrazolo[1,5-a]pyridin-3-yl)sulfonyl)-3,4-dihydro-2H-benzo[b][1,4]oxazin-2-yl)propanoate] | 5.30 to 6.30
17 | CCOc1nn2c(c1S(=O)(=O)N1C[C@H](CCC(=O)O)Oc3ccc(/C=C(\C)c4c(F)cccc4Cl)cc31)CCCC2 [Example 66, (S,E)-3-(6-(2-(2-Chloro-6-fluorophenyl)prop-1-en-1-yl)-4-((2-ethoxy-4,5,6,7-tetrahydropyrazolo[1,5-a]pyridin-3-yl)sulfonyl)-3,4-dihydro-2H-benzo[b][1,4]oxazin-2-yl)propanoic acid] | > 6.30

Second part, the molecule after the results:

Row | pEC50 | Structure (SMILES)
18 | 5.30 to 6.30 | O=C(O)CC[C@H]1CN(S(=O)(=O)c2cccc(C(F)(F)F)c2)c2cc(/C=C3\CCc4ccccc43)ccc2O1 [Example 38C, (S,E)-3-(6-((2,3-dihydro-1H-inden-1-ylidene)methyl)-4-((3-(trifluoromethyl)phenyl)sulfonyl)-3,4-dihydro-2H-benzo[b][1,4]-oxazin-2-yl)propanoic acid]
19 | < 5.00 | CC/C(=C\c1ccc2c(c1)N(S(=O)(=O)c1cccc(C(F)(F)F)c1)C[C@H](CCC(=O)OC)O2)c1ccccc1 [Example 36B, methyl (S,E)-3-(6-(2-phenylbut-1-en-1-yl)-4-((3-(trifluoromethyl)-phenyl)sulfonyl)-3,4-dihydro-2H-benzo[b][1,4]oxazin-2-yl)propanoate]
20 | 5.30 to 6.30 | CC(C)c1ccccc1/C=C/c1ccc2c(c1)N(S(=O)(=O)c1cccc(C(F)(F)F)c1)C[C@H](CCC(=O)O)O2 [Example 89CB, (S,E)-3-(6-(2-isopropylstyryl)-4-((3-(trifluoromethyl)-phenyl)-sulfonyl)-3,4-dihydro-2H-benzo[b][1,4]oxazin-2-yl)propanoic acid]
21 | < 5.00 | COC(=O)CC[C@H]1CN(S(=O)(=O)c2cccc(C(F)(F)F)c2)c2cc(/C=C/c3ncccc3F)ccc2O1 [Example 89DG, methyl (S,E)-3-(6-(2-(3-fluoropyridin-2-yl)vinyl)-4-((3-(trifluoromethyl)phenyl)-sulfonyl)-3,4-dihydro-2H-benzo[b][1,4]oxazin-2-yl)propanoate]
22 | > 6.30 | CC/C(=C\c1ccc2c(c1)N(S(=O)(=O)c1cccc(C(F)(F)F)c1)C[C@H](CCC(=O)O)O2)c1ccccc1Cl [Example 36A, (S,E)-3-(6-(2-(2-chlorophenyl)but-1-en-1-yl)-4-((3-(trifluoromethyl)-phenyl)sulfonyl)-3,4-dihydro-2H-benzo[b][1,4]oxazin-2-yl)propanoic acid]
